Measured values published in patent publication US11214803B2, “Modulators of YAP1 expression” (Ionis Pharmaceuticals, Inc., priority 2019, dated 2022).
Strand notation (5' to 3'): a small letter for the sugar, then the base; units joined by * are phosphorothioate-linked, units joined directly phosphodiester-linked; [ ] holds rarer units or linkages, { } end groups; capitals alone tell only the bases. k = constrained ethyl (cEt); [5mC] = 5-methylcytosine; d = 2'-deoxy (DNA)

System: Yap1 mRNA
Assay: Antisense inhibition of human Yap1 in A-431 cells by cEt gapmers, single dose (Example 4, RTS4814)
Assay type: cell-based
In short: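 A-431 cells took up 3-10-3 cEt gapmers (16-mer, full phosphorothioate, 5-methylcytosines) by free uptake at 2,000 nM for about 48 h. Yap1 mRNA was quantified by qRT-PCR, normalized to total RNA (RIBOGREEN), and reported as % of untreated control.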

[1] = Table 14, A-431 cells, 5,000 cells per well, free uptake, 2,000 nM, approximately 48 hours, RTS4814, normalized to RIBOGREEN, Yap1 mRNA relative to untreated control, * = targets amplicon region of primer probe set
[2] = Yap1 mRNA remaining as percent of untreated control, 3-10-3 cEt gapmers, A-431 cells, Table 36
[3] = Yap1 mRNA remaining as percent of untreated control, 3-10-3 cEt gapmers, A-431 cells, Table 37
[4] = Table 17, A-431 cells, 5,000 cells per well, free uptake, 2,000 nM, approximately 48 hours, RTS4814, normalized to RIBOGREEN, Yap1 mRNA relative to untreated control cells
[5] = Table 15, A-431 cells, 5,000 cells per well, free uptake, 2,000 nM, approximately 48 hours, RTS4814, normalized to RIBOGREEN, Yap1 mRNA relative to untreated control, * = targets amplicon region of primer probe set

1074885 (kA*kG*kG*dG*d[5mC]*dT*dA*dA*d[5mC]*dT*d[5mC]*d[5mC]*dT*kG*k[5mC]*k[5mC]; antisense) [compound 1074885]
YAP1 (% UTC) (table after Table 37, headed TABLE 32 (gapmers targeting SEQ ID NO.: 3), A-431 cells, free uptake, 2,000 nM, approximately 48 hours, RTS4814): 115 % UTC

1074720 (antisense kG*kA*kA*dG*dA*dT*d[5mC]*dT*d[5mC]*d[5mC]*dA*dT*dA*kT*kT*k[5mC]) [Compound 1074720]
YAP1 (% UTC) [1]: 58 % UTC

1075798 (kA*kT*kT*dT*dA*dG*dA*dT*dA*dG*dT*dT*dA*k[5mC]*kT*kG; antisense) [compound 1075798]
YAP1 (% UTC) [2]: 21 % UTC

1075863 (antisense k[5mC]*k[5mC]*kT*dA*dA*dT*dA*dA*d[5mC]*dT*dT*dG*dT*k[5mC]*kT*kA) [compound 1075863]
YAP1 (% UTC) [3]: 71 % UTC

1076279 (k[5mC]*kA*kA*dT*dA*dA*dG*dG*dA*d[5mC]*dA*dG*dG*kA*k[5mC]*k[5mC]; antisense) [compound 1076279]
YAP1 (% UTC) [3]: 71 % UTC

1075136 (antisense k[5mC]*kT*kA*dG*dA*dA*dT*dA*dT*dT*dA*dA*dA*kG*kG*kG) [Compound 1075136]
YAP1 (% UTC) [1]: 87 % UTC

1074979 (antisense kA*kT*kT*dG*d[5mC]*d[5mC]*dA*dG*dT*dT*d[5mC]*dT*dT*kG*kT*kT) [Compound 1074979]
YAP1 (% UTC) [4]: 32 % UTC

1075201 (antisense k[5mC]*kT*kT*dT*dA*dA*dA*dG*d[5mC]*d[5mC]*d[5mC]*dT*dA*kA*kT*kT) [Compound 1075201]
YAP1 (% UTC) [5]: 114 % UTC

1075939 (k[5mC]*kT*kT*dG*dA*dA*dT*dA*dT*dA*dT*dG*dG*kG*kT*kT; antisense) [Compound 1075939]
YAP1 (% UTC) [4]: 6 % UTC

1076544 (antisense kG*kA*k[5mC]*d[5mC]*dA*dA*d[5mC]*d[5mC]*dT*d[5mC]*d[5mC]*d[5mC]*d[5mC]*kT*kT*kG) [Compound 1076544]
YAP1 (% UTC) [1]: 89 % UTC

1074262 (antisense kG*k[5mC]*k[5mC]*dG*dA*dG*dT*dT*d[5mC]*dA*dT*d[5mC]*dA*kT*kA*kT) [compound 1074262]
YAP1 (% UTC) [2]: 48 % UTC

1075478 (k[5mC]*kA*kT*dT*dT*dT*dG*dA*dA*d[5mC]*d[5mC]*d[5mC]*dT*kT*kT*kA; antisense) [compound 1075478]
YAP1 (% UTC) [2]: 20 % UTC

1075489 (antisense kG*kA*kG*d[5mC]*dA*dA*d[5mC]*dA*dA*d[5mC]*dT*dA*dT*kG*kA*kG) [Compound 1075489]
YAP1 (% UTC) [5]: 51 % UTC

1076215 (kT*kT*kA*dT*dA*dA*d[5mC]*dA*dG*dA*d[5mC]*dT*dG*kG*k[5mC]*kT; antisense) [compound 1076215]
YAP1 (% UTC) [3]: 47 % UTC

1075191 (kA*k[5mC]*kG*dG*dG*dA*dA*dA*dG*dA*dA*dA*dG*kG*k[5mC]*k[5mC]; antisense) [compound 1075191]
YAP1 (% UTC) [3]: 83 % UTC

1075393 (k[5mC]*kT*kT*dA*dA*d[5mC]*d[5mC]*dT*dA*dT*dG*d[5mC]*d[5mC]*kA*kA*kA; antisense) [Compound 1075393]
YAP1 (% UTC) [5]: 37 % UTC
